Reference: patent publication US8586551B2, “18-membered macrocycles and analogs thereof” (Optimer Pharmaceuticals, Inc., priority 2005, dated 2013)
Read-outs that look alike come from different tables or passages of the source.

Tests used:
Finegoldia magna = assay: MIC against anaerobes: Finegoldia magna; type: cell-based; conditions: Finegoldia magna (15)
C. difficile = assay: MIC versus C. difficile strains; conditions: Clostridioides difficile
[1] = tested on: Fusobacterium species, miscellaneous; assay: MIC against anaerobes: Fusobacterium species, miscellaneous; type: cell-based; conditions: miscellaneous (14)
Method: The in vitro activity of OPT-80 was determined against 350 anaerobes. The experimental procedure for which is outlined in Antimicrobial Agents and Chemotherapy, 2004, 48: 4430-4434, which is hereby incorporated by reference in its entirety.
All organisms, including the 21 C. difficile strains, were separate isolates and not clonally related. All quality-control gram-negative and -positive strains recommended by NCCLS were included with each run: in every case, results (where available) were in range.

Clostridium bifermentans = assay: MIC against intestinal bacteria: Clostridium bifermentans; type: cell-based; conditions: Clostridium bifermentans (9)
[2] = tested on: All anaerobic gram-positive species; assay: MIC against intestinal bacteria: all anaerobic gram-positive species; type: cell-based
Clostridium difficile = assay: MIC against intestinal bacteria: Clostridium difficile; type: cell-based; conditions: Clostridium difficile (23)
Method: The in vitro activity of OPT-80 against intestinal bacteria was evaluated. The experimental procedure for which is outlined in Antimicrobial Agents and Chemotherapy, 2004, 48: 4898-4902, which is hereby incorporated by reference in its entirety.
Antimicrobial concentration ranges were selected to encompass or surpass the levels that would be achieved in the gut (to the extent that this information is available), subject to the limitations of solubility of the drugs in the testing medium. The range of concentration of OPT-80 used during testing was 0.03 μg/ml to 1024 μg/ml.
For analysis, the bacteria tested were generally placed into genus, species, or other groups with at least 10 isolates. The ranges and the MICs at which 50 and 90% of isolates were inhibited were determined except for organisms with fewer than 10 strains tested, for which only the ranges are reported (Table 8).

[3] = tested on: C. difficile clinical isolates; assay: MIC via agar dilution versus 110 clinical isolates of C. difficile; type: cell-based

CCc1c(Cl)c(O)c(Cl)c(O)c1C(=O)O[C@H]1[C@H](O)[C@H](OC)[C@H](OCC2=CC=CC[C@H](O)C(C)=C[C@H](CC)[C@@H](O[C@@H]3OC(C)(C)[C@@H](OC(=O)C(C)C)[C@H](O)[C@@H]3O)C(C)=CC(C)=CC[C@@H]([C@@H](C)O)OC2=O)O[C@@H]1C [R-Tiacumicin B, 3-[[[6-Deoxy-4-O-(3,5-dichloro-2-ethyl-4,6-dihydroxybenzoyl)-2-O-methyl-β-D-mannopyranosyl]oxy]-methyl]-12(R)-[[6-deoxy-5-C-methyl-4-O-(2-methyl-1-oxopropyl)-β-D-lyxo-hexopyranosyl]oxy]-11(S)-ethyl-8(S)-hydroxy-18(S)-(1(R)-hydroxyethyl)-9,13,15-trimethyloxacyclooctadeca-3,5,9,13,15-pentaene-2-one]
> 128 µg/mL: MIC50 [1] | MIC90 [1]
0.25 to 2.0 µg/mL: MIC range (Finegoldia magna)
0.06 µg/mL: MIC range (Clostridium bifermentans) | MIC ([3]; Clostridioides difficile, isolate 65 5967, read-out: MIC) | MIC ([3]; Clostridioides difficile, isolate 77 6390, read-out: MIC) | MIC ([3]; Clostridioides difficile, isolate 82 6329, read-out: MIC) | MIC ([3]; Clostridioides difficile, isolate 83 6330, read-out: MIC) | MIC ([3]; Clostridioides difficile, isolate 85 6332, read-out: MIC) | MIC ([3]; Clostridioides difficile, isolate 96 6348, read-out: MIC) | MIC ([3]; Clostridioides difficile, isolate 103 6068, read-out: MIC) | MIC ([3]; Clostridioides difficile, isolate 107 6079, read-out: MIC) | MIC ([3]; Clostridioides difficile, isolate 112 6280, read-out: MIC) | MIC ([3]; Clostridioides difficile, isolate 113 6304, read-out: MIC) | MIC ([3]; Clostridioides difficile, isolate 114 386, read-out: MIC) | MIC ([3]; Clostridioides difficile, isolate 116 5702, read-out: MIC) | MIC ([3]; Clostridioides difficile, isolate 117 6026, read-out: MIC) | MIC ([3]; Clostridioides difficile, isolate 121 6072, read-out: MIC) | MIC ([3]; Clostridioides difficile, isolate AB2 1725, read-out: MIC) | MIC ([3]; Clostridioides difficile, isolate AC1 1546, read-out: MIC) | MIC ([3]; Clostridioides difficile, isolate AJ1 1557, read-out: MIC) | MIC ([3]; Clostridioides difficile, isolate AL1 1753, read-out: MIC) | MIC ([3]; Clostridioides difficile, isolate B1 832, read-out: MIC) | MIC ([3]; Clostridioides difficile, isolate BH1 4506, read-out: MIC) | MIC ([3]; Clostridioides difficile, isolate BM1 1453, read-out: MIC) | MIC ([3]; Clostridioides difficile, isolate BR1 1321, read-out: MIC) | MIC ([3]; Clostridioides difficile, isolate BT1 706, read-out: MIC) | MIC ([3]; Clostridioides difficile, isolate E1 816, read-out: MIC) | MIC ([3]; Clostridioides difficile, isolate J1 5971, read-out: MIC) | MIC ([3]; Clostridioides difficile, isolate J9 4478, read-out: MIC) | MIC ([3]; Clostridioides difficile, isolate O1 1861, read-out: MIC) | MIC ([3]; Clostridioides difficile, isolate Y1 5639, read-out: MIC) | MIC ([3]; Clostridioides difficile, isolate Y2 1459, read-out: MIC)
0.06 to 2 µg/mL: MIC range (Clostridium difficile)
1 µg/mL: MIC50 (Finegoldia magna) | MIC90 (Finegoldia magna)
0.12 µg/mL: MIC50 [2] | MIC50 (Clostridium difficile; Clostridioides difficile)
0.125 µg/mL: MIC (C. difficile) | MIC (C. difficile; ATCC43255) | MIC ([3]; Clostridioides difficile) | MIC ([3]; isolate 64 5940) | MIC ([3]; isolate 67 6367)
0.25 µg/mL: MIC90 (Clostridium difficile; Clostridioides difficile)
64 µg/mL: MIC90 ([2]; All anaerobic gram-positive species (219))
0.03 µg/mL: MIC (C. difficile; ATCC9689) | MIC (C. difficile; ATCC17857) | MIC ([3]; Clostridioides difficile, isolate 61 5930, read-out: MIC) | MIC ([3]; Clostridioides difficile, isolate 68 6368, read-out: MIC) | MIC ([3]; Clostridioides difficile, isolate 86 6333, read-out: MIC) | MIC ([3]; Clostridioides difficile, isolate 104 6060, read-out: MIC) | MIC ([3]; Clostridioides difficile, isolate 105 6071, read-out: MIC) | MIC ([3]; Clostridioides difficile, isolate 106 6078, read-out: MIC) | MIC ([3]; Clostridioides difficile, isolate 111 6279, read-out: MIC) | MIC ([3]; Clostridioides difficile, isolate 120 6057, read-out: MIC) | MIC ([3]; Clostridioides difficile, isolate D1 1360, read-out: MIC) | MIC ([3]; Clostridioides difficile, isolate J7 4224, read-out: MIC) | MIC ([3]; Clostridioides difficile, isolate Z1 3036, read-out: MIC)
